Reference: ChEMBL document CHEMBL1201862, “PubChem BioAssay data set” (2004)
Activity calls are given as the source filed them.

What was measured:
Genome polyprotein = Genome polyprotein (dengue virus type 2, UniProt P29990); experiment: flavivirus cap methylation enzyme inhibition – biochemical, confirmation dose response, primary screen (AID 588689); type: functional
Cytochrome P450 2C9 = Cytochrome P450 2C9 (Homo sapiens, UniProt P11712)
Cytochrome P450 2D6 = Cytochrome P450 2D6 (Homo sapiens, UniProt P10635);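 further: CYP2D6 member of a cytochrome P450 panel assay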
Cytochrome P450 2D6, sequence (P10635 whole entry): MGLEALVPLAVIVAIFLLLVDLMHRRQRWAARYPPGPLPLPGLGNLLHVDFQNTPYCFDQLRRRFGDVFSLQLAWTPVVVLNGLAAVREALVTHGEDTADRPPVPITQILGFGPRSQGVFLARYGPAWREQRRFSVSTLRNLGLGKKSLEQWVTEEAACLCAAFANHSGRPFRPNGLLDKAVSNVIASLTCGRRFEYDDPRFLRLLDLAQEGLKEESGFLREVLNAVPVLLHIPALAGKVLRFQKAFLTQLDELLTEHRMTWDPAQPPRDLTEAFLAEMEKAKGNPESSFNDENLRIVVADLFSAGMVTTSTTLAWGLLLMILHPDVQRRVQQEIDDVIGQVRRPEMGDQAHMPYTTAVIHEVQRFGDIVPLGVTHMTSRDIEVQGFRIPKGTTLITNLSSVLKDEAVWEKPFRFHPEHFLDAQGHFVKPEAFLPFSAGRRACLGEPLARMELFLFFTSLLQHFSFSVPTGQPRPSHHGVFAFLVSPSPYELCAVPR

Cytochrome P450 3A4 = Cytochrome P450 3A4 (Homo sapiens, UniProt P08684);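 further: CYP3A4 tested as one member of a cytochrome P450 panel screen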
Cytochrome P450 3A4, sequence (P08684 whole entry): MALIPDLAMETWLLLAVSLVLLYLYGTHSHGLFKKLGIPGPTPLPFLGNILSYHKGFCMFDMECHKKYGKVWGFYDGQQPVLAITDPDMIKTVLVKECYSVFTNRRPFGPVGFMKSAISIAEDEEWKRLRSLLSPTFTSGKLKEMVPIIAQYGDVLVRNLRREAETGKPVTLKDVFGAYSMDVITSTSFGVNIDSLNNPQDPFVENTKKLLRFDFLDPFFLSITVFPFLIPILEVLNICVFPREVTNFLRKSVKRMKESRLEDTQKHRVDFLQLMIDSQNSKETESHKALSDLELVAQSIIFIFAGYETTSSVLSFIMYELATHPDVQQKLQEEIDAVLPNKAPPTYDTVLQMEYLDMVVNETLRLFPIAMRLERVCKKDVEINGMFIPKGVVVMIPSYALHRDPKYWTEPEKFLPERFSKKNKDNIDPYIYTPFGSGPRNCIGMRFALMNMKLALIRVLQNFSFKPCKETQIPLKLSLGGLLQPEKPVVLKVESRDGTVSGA

Vero = experiment: cells; type: functional; details: Chlorocebus sabaeus
[1] = viability of uninfected HEp-2 cells – cell-based, HTS, cytotoxicity control for RSV inhibitor project, dose response (AID 2410); type: functional; details: human respiratory syncytial virus
Protein RecA = molecular target: T1, Protein RecA (Mycobacterium tuberculosis, UniProt P9WHJ3); experiment: Fluorescence Cell-Free Homogeneous Dose Retest to Identify Inhibitors of RecA-Intein Splicing Activity. [Related pubchem assays (depositor defined):AID2097, AID2223, AID489010, AID492950]; type: functional
T1 sequence (P9WHJ3 whole entry): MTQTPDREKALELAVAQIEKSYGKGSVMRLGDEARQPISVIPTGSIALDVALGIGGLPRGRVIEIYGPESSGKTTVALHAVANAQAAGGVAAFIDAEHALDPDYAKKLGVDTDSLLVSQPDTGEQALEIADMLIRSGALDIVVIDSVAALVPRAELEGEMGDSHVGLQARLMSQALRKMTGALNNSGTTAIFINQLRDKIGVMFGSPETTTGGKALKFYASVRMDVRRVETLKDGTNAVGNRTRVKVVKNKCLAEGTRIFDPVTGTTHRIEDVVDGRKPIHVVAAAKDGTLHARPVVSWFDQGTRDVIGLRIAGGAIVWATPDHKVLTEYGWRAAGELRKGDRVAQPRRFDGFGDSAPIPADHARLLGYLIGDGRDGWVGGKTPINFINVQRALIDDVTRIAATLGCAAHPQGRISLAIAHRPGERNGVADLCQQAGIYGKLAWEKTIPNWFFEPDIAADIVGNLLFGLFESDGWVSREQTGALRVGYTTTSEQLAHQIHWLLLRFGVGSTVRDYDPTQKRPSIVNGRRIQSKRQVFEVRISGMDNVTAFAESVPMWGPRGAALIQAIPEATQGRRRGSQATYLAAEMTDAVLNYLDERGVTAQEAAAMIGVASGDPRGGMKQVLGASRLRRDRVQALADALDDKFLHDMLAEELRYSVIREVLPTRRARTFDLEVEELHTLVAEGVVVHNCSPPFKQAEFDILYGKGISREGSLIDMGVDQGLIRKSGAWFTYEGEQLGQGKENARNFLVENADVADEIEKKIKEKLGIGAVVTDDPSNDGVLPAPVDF

[2] = molecular target: T2, Replicative DNA helicase DnaB (Mycobacterium tuberculosis, UniProt P9WMR3); experiment: DnaB intein splicing inhibitors, dose response, biochemical, cell-free fluorescence (AID 449749); type: functional
T2 sequence (P9WMR3 whole entry): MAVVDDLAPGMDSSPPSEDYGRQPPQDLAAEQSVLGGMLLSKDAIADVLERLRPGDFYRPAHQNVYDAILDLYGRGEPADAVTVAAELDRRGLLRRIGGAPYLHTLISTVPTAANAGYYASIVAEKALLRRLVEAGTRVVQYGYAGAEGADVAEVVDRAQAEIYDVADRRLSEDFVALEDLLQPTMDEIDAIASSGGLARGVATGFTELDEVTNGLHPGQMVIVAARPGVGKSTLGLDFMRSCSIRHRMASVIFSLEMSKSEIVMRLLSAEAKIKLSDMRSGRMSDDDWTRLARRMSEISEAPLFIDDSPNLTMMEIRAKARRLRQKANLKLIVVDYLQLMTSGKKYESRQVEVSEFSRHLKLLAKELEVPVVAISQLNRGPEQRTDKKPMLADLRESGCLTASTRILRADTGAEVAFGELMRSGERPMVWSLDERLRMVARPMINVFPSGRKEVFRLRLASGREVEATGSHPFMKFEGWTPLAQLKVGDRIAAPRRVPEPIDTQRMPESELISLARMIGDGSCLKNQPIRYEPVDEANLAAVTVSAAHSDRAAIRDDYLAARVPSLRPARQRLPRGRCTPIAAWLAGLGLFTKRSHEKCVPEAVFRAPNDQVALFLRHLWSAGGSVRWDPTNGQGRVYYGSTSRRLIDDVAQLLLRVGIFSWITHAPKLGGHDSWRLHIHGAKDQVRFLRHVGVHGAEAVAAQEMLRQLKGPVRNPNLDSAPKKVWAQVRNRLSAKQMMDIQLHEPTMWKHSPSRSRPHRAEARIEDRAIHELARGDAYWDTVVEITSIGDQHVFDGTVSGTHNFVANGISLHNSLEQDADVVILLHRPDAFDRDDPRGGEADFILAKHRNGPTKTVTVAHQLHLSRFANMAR

Cytochrome P450 1A2 = molecular target: T3, Cytochrome P450 1A2 (Homo sapiens, UniProt P05177);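 further: PubChem cytochrome P450 panel assay, CYP1A2 panel member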
T3 sequence (P05177 whole entry): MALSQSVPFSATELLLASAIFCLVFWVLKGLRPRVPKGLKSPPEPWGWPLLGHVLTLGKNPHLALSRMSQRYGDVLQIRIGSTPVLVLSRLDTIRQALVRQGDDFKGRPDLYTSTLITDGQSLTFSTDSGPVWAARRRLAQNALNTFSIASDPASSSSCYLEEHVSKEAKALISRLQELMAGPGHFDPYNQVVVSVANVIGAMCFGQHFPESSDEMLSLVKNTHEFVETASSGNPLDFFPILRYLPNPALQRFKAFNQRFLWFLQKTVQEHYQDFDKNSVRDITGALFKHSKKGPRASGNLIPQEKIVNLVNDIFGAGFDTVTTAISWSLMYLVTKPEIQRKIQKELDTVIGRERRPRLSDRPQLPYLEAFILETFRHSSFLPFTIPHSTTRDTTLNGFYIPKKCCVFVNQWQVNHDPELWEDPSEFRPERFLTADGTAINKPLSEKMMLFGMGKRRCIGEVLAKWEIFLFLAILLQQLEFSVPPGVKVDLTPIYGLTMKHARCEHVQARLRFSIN

[3] = molecular target: T4, Rac GTPase-activating protein 1 (Homo sapiens, UniProt Q9H0H5); experiment: blockers of MgcRacGAP-driven Rac1 GTP hydrolysis – biochemical, ADP Hunter fluorescence, primary and confirmatory, confirmation (AID 624330); type: functional
T4 sequence (Q9H0H5 whole entry): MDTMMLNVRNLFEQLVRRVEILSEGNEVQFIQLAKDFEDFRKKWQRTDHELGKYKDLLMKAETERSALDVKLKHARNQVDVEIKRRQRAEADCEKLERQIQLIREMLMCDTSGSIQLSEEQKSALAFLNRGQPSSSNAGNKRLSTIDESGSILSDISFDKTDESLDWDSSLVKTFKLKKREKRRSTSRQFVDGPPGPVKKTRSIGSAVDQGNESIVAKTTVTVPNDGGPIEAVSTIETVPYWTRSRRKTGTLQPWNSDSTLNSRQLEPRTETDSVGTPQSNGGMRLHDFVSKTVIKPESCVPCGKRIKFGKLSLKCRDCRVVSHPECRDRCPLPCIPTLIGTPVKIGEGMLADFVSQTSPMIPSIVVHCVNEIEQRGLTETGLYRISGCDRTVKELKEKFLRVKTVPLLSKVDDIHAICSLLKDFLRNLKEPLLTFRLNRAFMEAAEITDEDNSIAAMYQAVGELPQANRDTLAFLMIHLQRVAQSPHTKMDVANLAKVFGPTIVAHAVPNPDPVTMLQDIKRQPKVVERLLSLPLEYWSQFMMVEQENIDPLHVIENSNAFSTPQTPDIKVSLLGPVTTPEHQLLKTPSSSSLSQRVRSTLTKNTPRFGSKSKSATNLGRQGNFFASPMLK

Genome polyprotein, sequence (P29990 2492-3391 limits assumed): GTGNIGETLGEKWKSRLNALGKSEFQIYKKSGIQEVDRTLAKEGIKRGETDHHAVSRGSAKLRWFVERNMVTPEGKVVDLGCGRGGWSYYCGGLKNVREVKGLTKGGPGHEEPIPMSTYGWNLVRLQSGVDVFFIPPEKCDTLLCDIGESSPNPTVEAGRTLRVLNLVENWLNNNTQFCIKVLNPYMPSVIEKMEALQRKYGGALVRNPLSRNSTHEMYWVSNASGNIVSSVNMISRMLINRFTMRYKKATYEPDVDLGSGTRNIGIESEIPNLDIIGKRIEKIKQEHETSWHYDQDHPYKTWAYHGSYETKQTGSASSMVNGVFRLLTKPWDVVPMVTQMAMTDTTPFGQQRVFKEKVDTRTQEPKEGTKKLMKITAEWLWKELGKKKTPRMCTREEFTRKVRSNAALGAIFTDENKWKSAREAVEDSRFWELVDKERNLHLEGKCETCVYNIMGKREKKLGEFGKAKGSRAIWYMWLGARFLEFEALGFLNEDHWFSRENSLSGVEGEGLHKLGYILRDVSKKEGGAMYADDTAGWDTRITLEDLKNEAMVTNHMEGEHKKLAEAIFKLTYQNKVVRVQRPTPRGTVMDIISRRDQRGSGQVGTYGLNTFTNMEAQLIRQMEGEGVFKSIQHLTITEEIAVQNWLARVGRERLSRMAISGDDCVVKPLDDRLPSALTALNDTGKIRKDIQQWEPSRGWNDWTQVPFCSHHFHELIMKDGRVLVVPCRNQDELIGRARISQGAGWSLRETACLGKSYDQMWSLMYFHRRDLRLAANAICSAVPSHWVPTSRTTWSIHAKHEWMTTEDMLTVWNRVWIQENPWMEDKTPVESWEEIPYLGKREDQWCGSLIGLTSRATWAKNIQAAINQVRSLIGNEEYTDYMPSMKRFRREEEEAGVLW
Cytochrome P450 2C9, sequence (P11712 whole entry): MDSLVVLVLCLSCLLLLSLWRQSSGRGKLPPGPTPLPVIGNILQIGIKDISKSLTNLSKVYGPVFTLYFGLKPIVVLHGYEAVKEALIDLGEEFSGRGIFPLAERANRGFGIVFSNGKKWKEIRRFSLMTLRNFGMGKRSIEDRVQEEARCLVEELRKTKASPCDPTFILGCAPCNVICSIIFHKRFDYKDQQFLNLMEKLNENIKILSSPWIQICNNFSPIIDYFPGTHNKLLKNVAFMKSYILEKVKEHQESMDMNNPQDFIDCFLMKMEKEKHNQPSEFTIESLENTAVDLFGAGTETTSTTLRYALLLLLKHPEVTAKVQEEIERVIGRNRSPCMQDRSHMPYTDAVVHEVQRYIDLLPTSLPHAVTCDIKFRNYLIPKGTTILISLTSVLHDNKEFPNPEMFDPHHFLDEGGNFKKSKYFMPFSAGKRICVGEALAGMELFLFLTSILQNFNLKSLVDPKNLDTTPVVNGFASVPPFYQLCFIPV

CC(=C\c1ccccc1)/C=C1/SC(=S)N(C(C(=O)O)C(C)C)C1=O (configuration not stated)
IC50 (Genome polyprotein): 34.1 µM (active)

CCCCn1nnnc1SCC(=O)c1cc(Cl)ccc1OC
AC50 (Cytochrome P450 2C9): inconclusive | AC50 (Cytochrome P450 2D6): 22.4 µM (inconclusive) | AC50 (Cytochrome P450 3A4): 14.1 µM (inconclusive)

CNC[C@H](CC1CCCCC1)NC[C@H](NCCC1CCCC1)[C@H](C)O
CC50 (Vero): > 25 µM (active)

CC(=O)Nc1ccc(S(=O)(=O)Nc2cccc(-c3nc4cc(C)ccc4o3)c2)cc1
CC50 (Vero): > 25 µM (active) | CC50 [1]: 9.33 µM (active)

O=C1NC(=O)C(=Cc2ccccc2Oc2ccc(F)cc2)C(=O)N1
IC50 (Genome polyprotein): 37.5 µM (active)

Cc1ccc(N2C(=O)NC(=O)/C(=C/c3ccc(OC(=O)c4cccs4)cc3)C2=O)cc1
IC50 (Genome polyprotein): 55.4 µM (active) | EC50 (Protein RecA): 0.772 µM (active) | AC50 [2]: 0.64 µM (active)

CCOc1cc2c(cc1O)C(=NO)CC1C2CCC2(C)C(O)CCC12 (configuration not stated)
CC50 (Vero): 4.99 µM (active)

O=C(CS(=O)(=O)c1cccc(Cl)c1)Nc1ccccc1Cl
AC50 (Cytochrome P450 2C9): inconclusive | AC50 (Cytochrome P450 2D6): 17.8 µM (inconclusive) | AC50 (Cytochrome P450 1A2): 22.4 µM (inconclusive)

O=C1NN(c2ccccc2)C(=O)C1=Cc1ccccc1O
IC50 (Genome polyprotein): 34.6 µM (active) | IC50 [3]: 81.3 µM (active)
